Assay results published in US20050181034A1, “Formulation of liposomal derivatives of phenylalanine” (WILEX AG, priority 2002, published 2005).
Where two headings read alike, the source gives them in different places.

Tests used:
[1] = Concentration in plasma, bile and organs after s.c. administration in rats; assay type: in vivo; conditions: rat; for concentration at 24 h: female, Wistar, sc
Method: (§1) Female wistar rats, 240-300 g body weight (Charles River-Wiga, Sulzfeld), were treated with the active ingredient WX-UK1 in the form of an aqueous solution or with the liposomal formulations 1-4 described in Example 1. The animals each received 1 dose/day over a period of 10 days. The administrations took place in the region of the flank (between shoulder and rear limbs) so that the animals were unable to reach the injection site with their paws. The injection sites were approx. 1 cm apart, no site being injected more than once. The first five injections took place on the left side, and the second five injections on the right side. The dose was usually 3 mg of active ingredient/kg of body weight, i.e. 0.9 mg of active ingredient was administered for an average body weight of 300 g. Radiolabeled active ingredient (3H-WX-UK1) was administered in some cases.
(§2) 24 h after the last injection, the animals were anaesthetized (ethylurethane, 1.4 g/kg i.p.), and citrated blood was obtained from the retroorbital venous plexus; citrated plasma was obtained by centrifugation at 1200×g for 10 min. The bile duct was then dissected, and bile was obtained for 15 min. Subsequently, the areas of skin at the injection sites were examined and the growth findings on dissection were recorded.
The animals were then sacrificed, and various organs (heart, kidney, liver, spleen) were dissected. The active ingredient content in the plasma, bile and organs was determined by HPLC [standard method using Nucleosil 7 C18 columns (Macherey-Nagel, Düren), acetonitrile/water/perchloric acid 30/70/0.04, 1 ml/min] after prepurification using Chromabond C18 solid-phase extraction columns (Macherey-Nagel, Duren). When ^3H-WX-UK1 was used, the active ingredient concentration was determined immediately after lyophilization of the samples by measuring the radioactivity in a liquid scintillation counter.

[2] = Tolerability of s.c. administration in rats (behavior, palpation, dissection, histology scores); assay type: in vivo; set-up: key to Behavior of the animals (score): 0: normal; slight scratching in 1st hour; 2: scratching and signs of pain; 3: still marked impairment after 2 h; key to Palpation consecutive (score): 0: unremarkable; 1: slight, isolated thickenings/indurations; 2: persistent thickenings/indurations, coalescing; 3: additional lesions, inflammations; conditions: rat
Method: as §1
The animals were weighed before each injection and observed for 2 h after each injection, and before each further injection the previous injection sites were palpated. The behavior of the animals and the palpation findings were recorded.
The following score was used to evaluate the observed impairments:
Behavior of the animals after the injection (2 h)
Consecutive Palpation Findings
as §2
The following score was used to evaluate the growth changes observed:
Final Observations, Growth Findings during Dissection
Skin samples were dissected from the regions of the injections, fixed in formalin and examined histologically (hematoxylin/eosin stain). The following score was used to evaluate the histologically visible changes: […]

[3] = s.c. 3 mg/kg 1 dose/day 10 days, 24 h after last injection, single experiment, listed as Control, 3 mg/kg

concentration at 24 h ([1]; bile, 3 mg/kg, s.c. 3 mg/kg 1 dose/day 10 days, 24 h after last injection, single experiment, read-out: Concentration Bile): 3100 ng/mL | concentration at 24 h ([1]; heart, 3 mg/kg, s.c. 3 mg/kg 1 dose/day 10 days, 24 h after last injection, single experiment, read-out: Organ content Heart): 840 ng/g | concentration at 24 h ([1]; kidney, 3 mg/kg, s.c. 3 mg/kg 1 dose/day 10 days, 24 h after last injection, single experiment, read-out: Organ content Kidney): 2300 ng/g | concentration at 24 h ([1]; liver, 3 mg/kg, s.c. 3 mg/kg 1 dose/day 10 days, 24 h after last injection, single experiment, read-out: Organ content Liver): 180 ng/g | concentration at 24 h ([1]; plasma, 3 mg/kg, s.c. 3 mg/kg 1 dose/day 10 days, 24 h after last injection, single experiment, read-out: Concentration Plasma): < 50 ng/mL | concentration at 24 h ([1]; spleen, 3 mg/kg, s.c. 3 mg/kg 1 dose/day 10 days, 24 h after last injection, single experiment, read-out: Organ content Spleen): 690 ng/g | Organ content Heart [1, 3]: 1.0 µg/g | Organ content Kidney [1, 3]: 2.5 µg/g | Organ content Liver [1, 3]: 0.36 µg/g | Organ content Spleen [1, 3]: 0.65 µg/g | Concentration in the plasma ([1]; s.c., determined only by using 3H-WX-UK1): < 100 ng/mL
Compound: CCOC(=O)N1CCN(C(=O)[C@H](Cc2cccc(C(=N)N)c2)NS(=O)(=O)c2c(C(C)C)cc(C(C)C)cc2C(C)C)CC1 [WX-UK1, Nα-(2,4,6-triisopropylphenylsulfonyl)-3-amidino-(L)-phenylalanine 4-ethoxycarbonylpiperazide]
Behavior of the animals (score) ([2]; 2 h after s.c. injection): 1 | Impression final (score, findings during dissection) ([2]; 24 h after last injection): 2.5 | Skin histology (FIG. 1, FIG. 3, magnification 25x) ([2]; after s.c. administration): strong inflammatory reaction | Palpation consecutive (score) ([2]; previous s.c. injection sites): 1 | Score (total impairment), Mean ([2]; s.c., mean of the two experiments): Mean = 7.5 | Score (total impairment of the animals) ([2]; s.c., sum of the part scores): 7.5
